One compound from US20200164047A1, “THERAPY AND DIAGNOSIS OF DISEASE CHARACTERIZED BY ALTERATIONS IN THE DNA DAMAGE RESPONSE” (UNIVERSITÀ DEGLI STUDI DI MILANO, priority 2017, published 2020) can be followed below.

Each structure is given as a SMILES string.

The subject of experiment [1] is cancer cell lines representative of different cancer types. As to the kind of experiment: Proliferation of cancer cell lines by CellTiter-Glo assay. The class given is cell-based. Particulars: nutrient-rich conditions. On the procedure: FIG. 20. […] (F, G) Quantification of oxygen consumption rate normalized by cell numbers of cells cultured in DMEM medium containing the indicated concentrations of glucose for 12 hours (F) or in DMEM medium containing with 2.5 mM glucose for the indicated time points (G).
CellTiter Glo Luminescent Cell Viability Assay (Promega) was used according to manufacturer's protocol. Briefly, cells were plated in 96 well plates, treated 24h later with different doses of drugs in total volume of 100 μl. 24h later, 100 μl of CellTiter Glo reagent was added to the cells and incubated for 15 min at 37° C. and luminescence was measured using a Promega plate reader.
In general terms: In ATP-based viability assays light output follows the ATP content of the culture.

Another experiment concerns HCT116 xenograft tumors. As to the kind of experiment: In vivo growth of HCT116 xenograft tumors. More on the design: species or system mice. From the text:
FIG. 13. […] Error bars indicate SEM.
FIG. 31. […] (B) Immunoblotting analysis of total cell lysates used for immunoprecipitation in (A).

For experiment [2], the system named is Bx-PC3 pancreatic cancer cells. Format: cell-based. The settings on record: metformin in combination with low glucose, 24, 48 and 72 hrs.
The nature of experiment [3]: Blood glucose levels in tumor-bearing mice. The settings on record: metformin 200 mg/kg oral gavage.
Source text: (B-D) The levels of blood glucose measured at the end of each feeding/fasting cycle in different experimental groups. […] Error bars indicate SEM. (n=5 per group).
To this end, mice bearing HCT116 xenografts were distributed into five groups as schematized in FIG. 13; the first two groups were kept on ad libitum feeding while the three other groups were subjected to 24-hour cycles of feeding-fasting. Fasting in those groups was achieved by complete withdrawal of food while allowing free access to water. […] The first of those three groups (Fed/Fast group) received vehicle every 48h to assess the effect of fasting-feeding cycles alone on tumor growth. […] Tumor growth was monitored in all groups.
The next experiment relates to HeLa cells. As to the kind of experiment: HeLa viable cell count with DNA damaging agents (trypan blue). Format: cell-based. The settings on record: hydroxyurea 10 mM + gemcitabine 10 nM; high (10 mM) or low (2.5 mM) glucose. On the procedure: After 24 hrs treatment, cells are allowed to grow for further 24 hrs (replacing the medium with normal medium), before being harvested and counted with trypan blue to measure viable cells.
HeLa cells were seeded in 6-well plates (200,00 cells/well), and left untreated, or treated with DNA damaging agents (hydroxyurea 10 mM+gemcitabine 10 nM), in high (10 mM) or low (2.5 mM) glucose, and treated with perphenazine (PPZ) as indicated. After 24 hrs treatment, cells are allowed to grow for further 24 hrs (replacing the medium with normal medium), before being harvested and counted with trypan blue to measure viable cells.
HeLa cells were seeded in 6-well plates (200,00 cells/well), and left untreated, or treated with DNA damaging agents (hydroxyurea 10 mM+gemcitabine 10 nM), in high (10 mM) or low (2.5 mM) glucose, and treated with FTY-720 (FTY) as indicated. After 24 hrs treatment, cells are allowed to grow for further 24 hrs (replacing the medium with normal medium), before being harvested and counted with trypan blue to measure viable cells.
HeLa cells were seeded in 6-well plates (200,00 cells/well), and left untreated, or treated with DNA damaging agents (hydroxyurea 10 mM+gemcitabine 10 nM), in high (10 mM) or low (2.5 mM) glucose, and treated with Ceramide as indicated. After 24 hrs treatment, cells are allowed to grow for further 24 hrs (replacing the medium with normal medium), before being harvested and counted with trypan blue to measure viable cells.
Cells were harvested by trypsinization, washed in PBS (pH 7.2), and then stained with trypan blue solution 04% v/v (Sigma Aldrich) added immediately prior to analysis. Cells ware then counted on a TC30 automated cell counter (Biorad).

The test system of experiment [4] is BON-1 neuroendocrine tumor cells. As to the kind of experiment: BON-1 cell viability. The class given is cell-based. Particulars: metformin with low (2.5 mM) glucose. From the text:
FIG. 57. […] The assay as performed as described in the other examples.

The test system of experiment [5] is yeast cells undergoing chronological aging. As to the kind of experiment: Chronological lifespan (CLS) with UV: DDR, NER, viability. Particulars: UV 40 J/m^2; rapamycin 2 ng/ml or metformin 80 mM. Format: cell-based, S. cerevisiae. On the procedure: Both drugs were supplemented at the initial overnight culture stage (Day 0), prior to cells entering stationary phase. In experiments including rapamycin-treated cultures, DMSO (0.04%) was used in the untreated cultures. For each chronological aging experiment, cells were set up in synthetic complete medium (SDC) and allowed to grow overnight at 28° C. to reach exponentially growing conditions the next day (day 1) until the end of kinetics (day 10/11 for DDR and NER analysis, day 21-28 for viability). At each examined day, small aliquots of cells were removed, exposed to 40 J/m^2 and further incubated in their exhausted medium. Samples were taken at untreated (prior to UV), 0 and 2 hours (for protein extraction) or 0, 6 and 24 hours (for genomic DNA extraction) after UV treatment.
PP2A targets: Gln3-myc, Npr1-myc, Nnk1-myc were all separated on NuPage precast 3-8% SDS gels. PonceauS staining was used as a loading control.
Cells were fixed in one volume of ice-cold 100% ethanol and incubated on ice for 5′. Genomic DNAs were then prepared following standard procedure. Equal amounts of DNA were loaded on 0.8% agarose gel, transferred by Southern blot onto nitrocellulose membrane (Amersham Protran 0.45μ) and cross-linked by baking 1 hour at 80° C.
Lifespan Viability Assays were Carried as Follows: Aliquots of Cells were Removed Throughout the CLS kinetics, serially diluted and spotted on YPD plates. The plates were then exposed to 40 J/m^2 (or 20 J/m^2 in some cases), incubated at 25° C. and scanned after 3 days. In FIGS. 33, 34 and 36 individual spot assay rows were cut out for space reasons, but the compared strains were always from the same plates.

Experiment [6] has as its system PDX models (patient-derived xenografts) from melanoma patients. As to the kind of experiment: In vivo growth of melanoma PDX models. The arrangement: species or system mice. Particulars: metformin-intermittent fasting combination. On the procedure:
CD1 nude mice received single subcutaneous flank injections of 5×10^6 HCT-116 cells or 1×10^5 patient-derived melanoma cells suspended in 200 μl saline. After the tumors were established, mice were randomized in different groups. Mice were kept on the feeding/fasting protocols described. […] Tumor growth was monitored by bi-dimensional measurements using a caliper. Experiments have been done in accordance with the Italian Laws (D.L.vo 116/92 and following additions), which enforces EU 86/609 Directive (Council Directive 86/609/EEC of 24 Nov. 1986 on the approximation of laws, regulations and administrative provisions of the Member States regarding the protection of animals used for experimental and other scientific purposes). Mice have been housed accordingly to the guidelines set out in Commission Recommendation 2007/526/EC—Jun. 18, 2007 on guidelines for the accommodation and care of animals used for experimental and other scientific purposes. Note that nude mice show a strain-specific decline in glucose levels upon fasting, of a higher degree as compared to other commonly used mouse strains (C57B6).

For the compound `CN(C)C(=N)NC(=N)N.Cl` [metformin], the anti-proliferative effect entry in experiment [1] is “only weak anti-proliferative effects”. Besides, the tumor growth result in the experiment on HCT116 xenograft tumors (metformin 200 mg/kg every 48 h during fasting cycles (Met/Fast)) was “dramatically impeded”; in the experiment on HCT116 xenograft tumors (metformin alone, ad libitum feeding, 200 mg/kg oral gavage) it was “did not exert any significant tumor restraining effect”. For the same compound, the “sensitization by RAD51 knockdown” value in experiment [2] is reported as “dramatically sensitizes”. Besides, the blood glucose levels result in experiment [3] was “reduced blood glucose levels but to a much less extent than that induced by fasting”. Also, the “cooperation with DNA damaging agents (viable cells)” value with HeLa cells was “potentiates the effect of DNA damaging agents in low glucose”. Further, the cell viability entry in experiment [4] is listed as “reduction in cell viability”. In addition, in experiment [5], the “DDR, NER and lifespan during chronological aging” value was “improve DDR and promote longevity but not NER”. Also, the “tumor growth in PDX models” value in experiment [6] is given as “also works on PDX models of tumor”.
